For assay [1], the system named is HCV genotype 1a (H77 strain) replicon in HUH-7 cells. As to the kind of experiment: HCV replicon luciferase reporter assay, genotype 1a. The conditions noted are these: Hepatitis C virus, Huh-7, 72 h, HCV genotype 1a replicon luciferase assay, 3 days incubation, range class, read-out: LE_1a (EC50, range). It is filed as cell-based. A digest of the protocol:
(§1)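 Replicon inhibition for both genotypes was measured as Renilla luciferase signal (EnduRen, 7.5 μM final, 2 h) after 3-day, 37° C exposure of replicon-bearing HUH-7 cells in 4% FCS DMEM, 0.5% DMSO. The 1b construct carries S1179I; the 1a H77 construct carries P1496L and S2204I. Twenty-point, 3-fold dilutions were fitted four-parametrically for EC50, and CC50 was taken from multiplexed Cell Titer-Blue.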
For orientation: Replicon systems follow genome replication, usually without infectious particles.

Assay [2] concerns HCV genotype 1b (Con1) replicon in HUH-7 cells. As to the kind of experiment: HCV replicon luciferase reporter assay, genotype 1b. Type of assay: cell-based. The conditions noted are these: Hepatitis C virus, Huh-7, 72 h, HCV genotype 1b replicon luciferase assay, 3 days incubation, range class, read-out: LE_1b (EC50, range). A digest of the protocol: as §1

The values that follow come from US9499550B2 (BRISTOL-MYERS SQUIBB COMPANY, priority 2012, dated 2016).

Regarding `COc1ccc2c(O[C@@H]3C[C@H]4C(=O)N[C@]5(C(=O)NS(=O)(=O)C6CC6)C[C@H]5/C=C\CC[C@H](C)C[C@@H](C)[C@H](NC(=O)OC(C)(C)C(F)(F)F)C(=O)N4C3)nc(-c3ccc(OC(C)C)c(F)c3)cc2c1` [Compound 3063, 1,1,1-trifluoro-2-methylpropan-2-yl((2R,6S,7R,9S,13aS,14aR,16aS,Z)-14a-((cyclopropylsulfonyl)carbamoyl)-2-((3-(3-fluoro-4-isopropoxyphenyl)-6-methoxyisoquinolin-1-yl)oxy)-7,9-dimethyl-5,16-dioxo-1,2,3,5,6,7,8,9,10,11,13a,14,14a,15,16,16a-hexadecahydrocyclopropa[e]pyrrolo[1,2-a][1,4]diazacyclopentadecin-6-yl)carbamate], the EC50 (in general, the concentration that produces a half-maximal response) in assay [1] was 4.82 to 103 nM; in assay [2], below 5.46 nM.

As for `COc1ccc2c(O[C@@H]3C[C@H]4C(=O)N[C@]5(C(=O)NS(=O)(=O)C6CC6)C[C@H]5/C=C\CC[C@@H](C)C[C@@H](C)[C@H](NC(=O)OC(C)(C)C(F)(F)F)C(=O)N4C3)nc(-c3ccc(OC(C)C)c(F)c3)cc2c1` [Compound 3064, 1,1,1-trifluoro-2-methylpropan-2-yl((2R,6S,7R,9R,13aS,14aR,16aS,Z)-14a-((cyclopropylsulfonyl)carbamoyl)-2-((3-(3-fluoro-4-isopropoxyphenyl)-6-methoxyisoquinolin-1-yl)oxy)-7,9-dimethyl-5,16-dioxo-1,2,3,5,6,7,8,9,10,11,13a,14,14a,15,16,16a-hexadecahydrocyclopropa[e]pyrrolo[1,2-a][1,4]diazacyclopentadecin-6-yl)carbamate], the EC50 in assay [1] and in assay [2] was below 5.46 nM throughout.

In the case of `COc1ccc2c(O[C@@H]3C[C@H]4C(=O)N[C@]5(C(=O)NS(=O)(=O)C6CC6)C[C@H]5/C=C\CC[C@H](C)C[C@@H](C)[C@H](NC(=O)OCC5(C)CC5)C(=O)N4C3)nc(-c3ccc(OC(C)C)c(F)c3)cc2c1` [Compound 3065, (1-methylcyclopropyl)methyl ((2R,6S,7R,9S,13aS,14aR,16aS,Z)-14a-((cyclopropylsulfonyl)carbamoyl)-2-((3-(3-fluoro-4-isopropoxyphenyl)-6-methoxyisoquinolin-1-yl)oxy)-7,9-dimethyl-5,16-dioxo-1,2,3,5,6,7,8,9,10,11,13a,14,14a,15,16,16a-hexadecahydrocyclopropa[e]pyrrolo[1,2-a][1,4]diazacyclopentadecin-6-yl)carbamate], the EC50 in assay [1] was 4.82 to 103 nM; in assay [2] it was below 5.46 nM.

For `COc1ccc2c(O[C@@H]3C[C@H]4C(=O)N[C@]5(C(=O)NS(=O)(=O)C6CC6)C[C@H]5/C=C\CC[C@@H](C)C[C@@H](C)[C@H](NC(=O)OCC5(C)CC5)C(=O)N4C3)nc(-c3ccc(OC(C)C)c(F)c3)cc2c1` [Compound 3066, (1-methylcyclopropyl)methyl ((2R,6S,7R,9R,13aS,14aR,16aS,Z)-14a-((cyclopropylsulfonyl)carbamoyl)-2-((3-(3-fluoro-4-isopropoxyphenyl)-6-methoxyisoquinolin-1-yl)oxy)-7,9-dimethyl-5,16-dioxo-1,2,3,5,6,7,8,9,10,11,13a,14,14a,15,16,16a-hexadecahydrocyclopropa[e]pyrrolo[1,2-a][1,4]diazacyclopentadecin-6-yl)carbamate], the EC50 in assay [1] and in assay [2] was below 5.46 nM throughout.

For `COc1ccc2c(O[C@@H]3C[C@H]4C(=O)N[C@]5(C(=O)NS(=O)(=O)C6(C)CC6)C[C@H]5/C=C\CC[C@H](C)C[C@@H](C)[C@H](NC(=O)OCC5(C)CC5)C(=O)N4C3)nc(-c3ccc(OC(C)C)c(F)c3)cc2c1` [Compound 3067, (1-methylcyclopropyl)methyl ((2R,6S,7R,9S,13aS,14aR,16aS,Z)-2-((3-(3-fluoro-4-isopropoxyphenyl)-6-methoxyisoquinolin-1-yl)oxy)-7,9-dimethyl-14a-(((1-methylcyclopropyl)sulfonyl)carbamoyl)-5,16-dioxo-1,2,3,5,6,7,8,9,10,11,13a,14,14a,15,16,16a-hexadecahydrocyclopropa[e]pyrrolo[1,2-a][1,4]diazacyclopentadecin-6-yl)carbamate], the EC50 was 4.82 to 103 nM in assay [1] and below 5.46 nM in assay [2].

With `COc1ccc2c(O[C@@H]3C[C@H]4C(=O)N[C@]5(C(=O)NS(=O)(=O)C6(C)CC6)C[C@H]5/C=C\CC[C@@H](C)C[C@@H](C)[C@H](NC(=O)OCC5(C)CC5)C(=O)N4C3)nc(-c3ccc(OC(C)C)c(F)c3)cc2c1` [Compound 3068, (1-methylcyclopropyl)methyl ((2R,6S,7R,9R,13aS,14aR,16aS,Z)-2-((3-(3-fluoro-4-isopropoxyphenyl)-6-methoxyisoquinolin-1-yl)oxy)-7,9-dimethyl-14a-(((1-methylcyclopropyl)sulfonyl)carbamoyl)-5,16-dioxo-1,2,3,5,6,7,8,9,10,11,13a,14,14a,15,16,16a-hexadecahydrocyclopropa[e]pyrrolo[1,2-a][1,4]diazacyclopentadecin-6-yl)carbamate], the half-maximal effective concentration (EC50) in assay [1] and in assay [2] was below 5.46 nM throughout.

In the case of `COc1ccc2c(O[C@@H]3C[C@H]4C(=O)N[C@]5(C(=O)NS(=O)(=O)C6CC6)C[C@H]5/C=C\CC[C@H](C)C[C@@H](C)[C@H](NC(=O)O[C@@H]5C[C@@H]6C[C@@H]6C5)C(=O)N4C3)nc(-c3ccc(OC(C)C)c(F)c3)cc2c1` [Compound 3069, (1R,3r,5S)-bicyclo[3.1.0]hexan-3-yl((2R,6S,7R,9S,13aS,14aR,16aS,Z)-14a-((cyclopropylsulfonyl)carbamoyl)-2-((3-(3-fluoro-4-isopropoxyphenyl)-6-methoxyisoquinolin-1-yl)oxy)-7,9-dimethyl-5,16-dioxo-1,2,3,5,6,7,8,9,10,11,13a,14,14a,15,16,16a-hexadecahydrocyclopropa[e]pyrrolo[1,2-a][1,4]diazacyclopentadecin-6-yl)carbamate], the EC50 in assay [1] was 4.82 to 103 nM; in assay [2] it was below 5.46 nM.

Take `COc1ccc2c(O[C@@H]3C[C@H]4C(=O)N[C@]5(C(=O)NS(=O)(=O)C6CC6)C[C@H]5/C=C\CC[C@@H](C)C[C@@H](C)[C@H](NC(=O)O[C@@H]5C[C@@H]6C[C@@H]6C5)C(=O)N4C3)nc(-c3ccc(OC(C)C)c(F)c3)cc2c1` [Compound 3070, (1R,3r,5S)-bicyclo[3.1.0]hexan-3-yl((2R,6S,7R,9R,13aS,14aR,16aS,Z)-14a-((cyclopropylsulfonyl)carbamoyl)-2-((3-(3-fluoro-4-isopropoxyphenyl)-6-methoxyisoquinolin-1-yl)oxy)-7,9-dimethyl-5,16-dioxo-1,2,3,5,6,7,8,9,10,11,13a,14,14a,15,16,16a-hexadecahydrocyclopropa[e]pyrrolo[1,2-a][1,4]diazacyclopentadecin-6-yl)carbamate]: the EC50 in assay [1] and in assay [2] was below 5.46 nM in each case.

Consider `COc1ccc2c(O[C@@H]3C[C@H]4C(=O)N[C@]5(C(=O)NS(=O)(=O)C6(C)CC6)C[C@H]5/C=C\CC[C@H](C)C[C@@H](C)[C@H](NC(=O)O[C@@H]5C[C@@H]6C[C@@H]6C5)C(=O)N4C3)nc(-c3ccc(OC(C)C)c(F)c3)cc2c1` [Compound 3071, (1R,3r,5S)-bicyclo[3.1.0]hexan-3-yl((2R,6S,7R,9S,13aS,14aR,16aS,Z)-2-((3-(3-fluoro-4-isopropoxyphenyl)-6-methoxyisoquinolin-1-yl)oxy)-7,9-dimethyl-14a-(((1-methylcyclopropyl)sulfonyl)carbamoyl)-5,16-dioxo-1,2,3,5,6,7,8,9,10,11,13a,14,14a,15,16,16a-hexadecahydrocyclopropa[e]pyrrolo[1,2-a][1,4]diazacyclopentadecin-6-yl)carbamate], for which the figures for the EC50 in assay [1] and in assay [2] were 4.82 to 103 nM and below 5.46 nM, respectively.
